Source: patent publication US7897637B2, “Methods of using flavonoids to enhance memory” (The Salk Institute for Biological Studies, priority 2006, dated 2011)
“Also recorded” adds a separate entry of the source.

Tests used:
Male C57Bl/6J mice = test: Object recognition task; assay type: in vivo; conditions: 60 minutes prior to training, vs vehicle
Protocol: The effect of fisetin, 3,3′,4′-THF, and apigenin (5,7,4′-THF) on memory was tested in mice using an object recognition task (Ennaceur and Delacour, Behav. Brain Res., 31:47-59, 1988). Among the alternatives available for testing memory, this assay has proven very effective for measuring CREB-dependent functions (Prickaerts et al., Neurosci., 113:351-61, 2002; Bourtchouladze et al., Proc. Natl. Acad. Sci. USA, 100:10518-22, 2003). In this test, mice are presented with two identical objects during the training period which they explore for a fixed time period. To test for memory, mice are presented one day later with two different objects, one of which was presented previously during the training and is thus familiar to the mice, and the other that is novel. The better a mouse remembers the familiar object, the more time it will spend exploring the novel object. To test the effects of fisetin, 3,3′,4′-THF, or apigenin (5,7,4′-THF) in this memory task, the respective compound was administered orally to the mice before the start of the training period. Rolipram, a phosphodiesterase inhibitor that potentiates memory in this assay (Bourtchouladze et al., Proc. Natl. Acad. Sci. USA, 100:10518-22, 2003), requires intraperitoneal injection and was used as a positive control.
Male C57Bl/6J mice (Jackson Laboratories) were used and the testing was done by PsychoGenics (Tarrytown, N.Y.). All mice were acclimated to the colony room for at least 2 weeks prior to testing and were tested at an average age of 8 weeks. Mice were randomly assigned across treatment groups with 10 mice in each group. For each dose tested, a 10× solution of fisetin was prepared in 95% ethanol and then diluted with 4 volumes polyethylene glycol 660 hydroxystearate (Solut HS15 from BASF) and 5 volumes phosphate buffered saline. The vehicle was contained the identical ratios of ethanol, Solut HS15 and phosphate buffered saline. All were administered orally 60 minutes prior to training at a volume of 10 ml/kg body weight. Rolipram was dissolved in 10% DMSO and administered intraperitoneally 20 minutes prior to training. The test was performed as previously described by Bourtchouladze et al. (Proc. Natl. Acad. Sci. USA, 100:10518-22, 2003). Briefly, on Day 1 mice were habituated to a circular open field arena for one hour in cage groups of four. Twenty-four (24) hours later, individual mice were placed back in the same arena which now contained two identical objects for a 15 minutes training trial. […] Each animal's test trial was recorded and the first 10 minutes of each session were scored. […] Data were analyzed by a one-way ANOVA followed by post-hoc comparisons with Fisher's test. […]

[1] = Trolox Equivalent Activity Concentration (ABTS decolorization assay); conditions: Trolox as reference
Protocol: To determine if the protection seen with the different fisetin derivatives correlated with their antioxidant properties, their Trolox Equivalent Activity Concentration (TEAC) values were determined. In this procedure, a compound is compared to Trolox, a water-soluble vitamin E analog, for its ability to reduce the radical cation of ABTS in aqueous solution. As reported previously, fisetin has a TEAC value of ˜3 (Table II). None of the derivatives had TEAC values in this range despite, in some cases, showing better protection against oxidative stress-induced death. Thus, there was no correlation with antioxidant activity as defined by TEAC value and protection in this system.
TEAC values for the flavonoids were determined according to (Re et al. Free Rad. Biol. Med., 26:1231-7, 1999) but modified for a plate reader. Briefly, 250 μl of 2,2′-azinobis(3-ethylbenzothiazoline 6-sulfonate)(ABTS) treated overnight with potassium persulfate and diluted to an OD of ˜0.7 at 734 nm was added to 2.5 μl of a flavonoid solution in ethanol. The change in absorbance due to the reduction of the ABTS radical cation was measured at 734 nm for 4 minutes. To calculate the TEAC, the gradient of the plot of the percentage inhibition of absorbance vs. concentration for the flavonoid in question is divided by the gradient of the plot for Trolox.

GSH = test: Total cellular GSH levels in HT22 cells; assay type: cell-based, mouse; conditions: 8 hours; for GSH levels in the presence of oxidative stress: 5 mM glutamate
Protocol: The effects of fisetin derivatives on cellular GSH levels was then determined. HT22 cells were untreated (Ct) or treated with 10 μM fisetin, 25 μM 3,3′-DHF, 25 μM 3,4′-DHF, 2.5 μM 3′,4′-DHF, 2.5 μM 3,3′,4′-THF, 25 μM 3,7,3′-THF, 25 μM 3,7,4′-THF or 10 μM 7,3′,4′-THF alone or in the presence of 5 mM glutamate. After 8 hours cellular levels of total GSH were determined as described in Example 4. The GSH level of the control sample (31.5±10 nmoles/mg protein) was taken as 100%.
Total intracellular GSH/GSSG was determined using whole cell lysates from untreated, glutamate treated, flavonoid treated and glutamate plus flavonoid treated cells as described (Maher and Hanneken, Invest. Opthalmol. Vis. Sci., 46:749-57, 2005, herein incorporated by reference as to the method) and normalized to total cellular protein.

PC12 cells = conditions: at 10 μM; Sagara et al. 2004; cited from earlier work
ERK = ERK activation in primary cortical neuron cultures (immunoblotting); assay type: cell-based, rat; conditions: 10 μM, 30 minutes to 6 hours
Protocol: The average phosphoprotein signal from the blots was quantified by densitometry and normalized to total protein,
Five (5) day old cortical cultures were next pretreated with 50 μM of the MEK inhibitor, PD98059, before the addition of 10 μM fisetin for 4 hours.
Primary cultures of rat cortical neurons were prepared as previously described by Li et al. (Neuron, 19:453-63, 1997, herein incorporated by reference as to the method). Analysis of ERK and CREB phosphorylation was performed using SDS-polyacrylamide gel electrophoresis and immunoblotting as previously described by Sagara et al. (J. Neurochem., 90:1144-1155, 2004) using equal amounts of protein from 5 day old cortical cultures. Blots were scanned and quantified using NIH Image. Results were analyzed using an unpaired Student's t-test.

[2] = tested on: CA1 area of rat hippocampal slices; test: Long-term potentiation in CA1 area of hippocampal slices; assay type: cell-based
[3] = weak tetanic stimulation 15 pulses at 100 Hz

Row | Structure (SMILES) | object recognition (Male C57Bl/6J mice; 25 mg/kg oral) | TEAC [1] | GSH levels in the presence of oxidative stress (GSH) | basal levels of GSH (GSH; flavonoid alone) | object recognition (Male C57Bl/6J mice; 10 mg/kg oral) | TEAC ([1]; listed as 3,7,3,′4′-THF (fisetin)) | differentiation of the cells induced (PC12 cells) | ERK activation (ERK) | induction of LTP following weak tetanic stimulation ([2]; 15 pulses at 100 Hz, fisetin 20 minutes prior to, during and after) | effect on APV-dependent inhibition of excitatory postsynaptic potentials ([2]; in the presence of APV) | effect on basal synaptic transmission ([2]; no tetanus) | maximal effective dose for facilitation of LTP induction [2, 3] | persistence of facilitated LTP [2, 3]
1 | O=c1c(O)c(-c2ccc(O)c(O)c2)oc2ccccc12 [3,3′,4′-THF, 3,3′,4′-trihydroxyflavone] | significantly increased object recognition | 2.07 ± 0.06 | able to maintain GSH levels | – | – | – | – | – | – | – | – | – | –
2 | O=c1cc(-c2ccc(O)c(O)c2)oc2ccccc12 [3′,4′-DHF, 3′,4′-dihydroxyflavone] | – | 1.24 ± 0.08 | could not maintain GSH levels | raised the basal levels of GSH | – | – | – | – | – | – | – | – | –
3 | O=c1c(O)c(-c2ccc(O)c(O)c2)oc2cc(O)ccc12 [fisetin, 3,3′,4′,7-tetrahydroxyflavone] | significant effects | ~3 | – | – | significant effects | 3.11 ± 0.20 | 75-80% | induced ERK activation | LTP was induced; also recorded: facilitates the induction of LTP | no effect | no direct effect | 1 µM | at least 60 minutes
